Measurements published in the NIST ThermoML archive (doi:10.1021/je060441j).
± gives the expanded uncertainty stated by the source.

Assay: xn = mol fraction of the nth substance listed
Conditions: 101 kPa, Liquid

ClC(Cl)Cl [trichloromethane] + CO
mass density [kg/m3]
Conditions	288.15 K	293.15 K	298.15 K	303.15 K	308.15 K	313.15 K
x2 = 0	1498.08 ± 0.47	1488.64 ± 0.46	1479.15 ± 0.45	1469.61 ± 0.45	1460.03 ± 0.44	1450.41 ± 0.43
x2 = 0.0298	1487.35 ± 0.47	1477.93 ± 0.46	1468.46 ± 0.45	1458.95 ± 0.44	1449.38 ± 0.44	1439.8 ± 0.43
x2 = 0.0492	1480.27 ± 0.46	1470.88 ± 0.45	1461.44 ± 0.45	1451.95 ± 0.44	1442.4 ± 0.43	1432.84 ± 0.42
x2 = 0.0724	1471.76 ± 0.45	1462.41 ± 0.45	1453.01 ± 0.44	1443.55 ± 0.43	1434.04 ± 0.42	1424.49 ± 0.42
x2 = 0.0942	1463.44 ± 0.45	1454.14 ± 0.44	1444.79 ± 0.43	1435.38 ± 0.42	1425.89 ± 0.42	1416.4 ± 0.41
x2 = 0.1282	1450.19 ± 0.44	1440.98 ± 0.43	1431.7 ± 0.42	1422.37 ± 0.41	1412.96 ± 0.41	1403.52 ± 0.4
x2 = 0.1586	1437.96 ± 0.43	1428.83 ± 0.42	1419.63 ± 0.41	1410.37 ± 0.41	1401.04 ± 0.4	1391.68 ± 0.39
x2 = 0.2444	1401.12 ± 0.4	1392.24 ± 0.39	1383.3 ± 0.39	1374.3 ± 0.38	1365.22 ± 0.37	1356.1 ± 0.36
x2 = 0.2956	1377.44 ± 0.38	1368.73 ± 0.38	1359.97 ± 0.37	1351.14 ± 0.36	1342.24 ± 0.36	1333.29 ± 0.35
x2 = 0.3383	1356.51 ± 0.37	1347.95 ± 0.36	1339.33 ± 0.36	1330.66 ± 0.35	1321.9 ± 0.34	1313.09 ± 0.34
x2 = 0.398	1325.26 ± 0.35	1316.93 ± 0.34	1308.55 ± 0.33	1300.11 ± 0.33	1291.59 ± 0.32	1283.02 ± 0.31
x2 = 0.4393	1302.23 ± 0.33	1294.08 ± 0.33	1285.87 ± 0.32	1277.6 ± 0.31	1269.26 ± 0.31	1260.88 ± 0.3
x2 = 0.4983	1267.1 ± 0.31	1259.22 ± 0.3	1251.28 ± 0.3	1243.28 ± 0.29	1235.22 ± 0.28	1227.13 ± 0.28
x2 = 0.5505	1233.39 ± 0.29	1225.77 ± 0.28	1218.09 ± 0.28	1210.35 ± 0.27	1202.55 ± 0.27	1194.71 ± 0.26
x2 = 0.6022	1197.32 ± 0.27	1190.01 ± 0.26	1182.62 ± 0.26	1175.17 ± 0.25	1167.65 ± 0.25	1160.08 ± 0.24
x2 = 0.6352	1172.94 ± 0.26	1165.78 ± 0.26	1158.57 ± 0.25	1151.3 ± 0.24	1143.98 ± 0.24	1136.62 ± 0.23
x2 = 0.6999	1121.29 ± 0.23	1114.52 ± 0.23	1107.71 ± 0.23	1100.84 ± 0.22	1093.93 ± 0.22	1086.96 ± 0.21
x2 = 0.75	1077.55 ± 0.23	1071.1 ± 0.22	1064.61 ± 0.22	1058.07 ± 0.21	1051.48 ± 0.21	1044.85 ± 0.2
x2 = 0.7996	1030.62 ± 0.21	1024.5 ± 0.21	1018.34 ± 0.21	1012.15 ± 0.2	1005.91 ± 0.2	999.622 ± 0.2
x2 = 0.8193	1011.24 ± 0.22	1005.11 ± 0.22	998.988 ± 0.21	992.86 ± 0.21	986.761 ± 0.21	980.633 ± 0.22
x2 = 0.8534	975.44 ± 0.24	969.692 ± 0.24	963.915 ± 0.24	958.1 ± 0.24	952.24 ± 0.24	946.342 ± 0.24
x2 = 0.91	911.539 ± 0.27	906.188 ± 0.27	900.813 ± 0.27	895.41 ± 0.27	889.975 ± 0.27	884.513 ± 0.27
x2 = 0.93	887.399 ± 0.29	882.191 ± 0.29	876.963 ± 0.29	871.71 ± 0.29	866.422 ± 0.3	861.11 ± 0.3
x2 = 0.9542	857.083 ± 0.32	852.051 ± 0.32	847 ± 0.32	841.927 ± 0.32	836.829 ± 0.32	831.705 ± 0.32
